Reference: patent publication US10034922B2, “Peptide having angiogenesis inhibitory activity and composition containing same” (GemVax & KAEL Co., Ltd., priority 2013, dated 2018)

Key:
HSP70 = HSP70 protein level by immunoblotting, serum-free media, 2 h treatment; format: cell-based, human; details: MCF7 cells, PEP1 20 μM, 17-AAG 1 μM, KNK437 1 μM
Description: (§1) Jurkat and MCF7 cells ([…]) were seeded and incubated for 12 hours. After treating the starvation for 2 hours by adding the OPTI-MEM media, same as the shown figure, the cells were treated by the PEP1 at the different concentrations, by the scrambled peptides, […] (1 μM) or KNK437 (1 μM). After the 2-hour incubation, the cells were collected and lysated by using cell lysis buffer (Thermo Scientific, IL, USA). By using Bradford Protein Assay (Bio-Rad, USA), the protein concentration was quantified, and the samples were treated by SDS-PAGE and immunoblotting with α-HSP70 (sc-32239 and sc-66048, Santa Cruz, Calif., USA), α-HSP90 (ab1429, abcam, USA), α-GRP78 (sc-13968), α-HIF-1a (sc-10790) or α-GAPDH (sc-25778) antibodies. The immune reactive band was visualized by the intensive chemiluminescence kit (iNtRoN Biotechnology, INC, Korea), and analyzed by ImageQuant™ LAS-4000 (GE Healthcare Life Science, NJ, US).

HSP90 = HSP90 protein level by immunoblotting, serum-free media, 2 h treatment; format: cell-based, human; details: 17-AAG 1 μM, KNK437 1 μM
Description: as §1

## C=CCNC1=C2C[C@@H](C)C[C@H](OC)[C@H](O)[C@@H](C)/C=C(\C)[C@H](OC(N)=O)[C@@H](OC)/C=C\C=C(/C)C(=O)NC(=CC1=O)C2=O [17-AAG]
HSP70
  amount of HSP70, comparison with HSP inhibitors: very little effect
HSP90; Jurkat cells, PEP1 5 μM
  amount of HSP90, comparison with HSP inhibitors: decreased
HSP90; MCF7 cells, PEP1 20 μM
  amount of HSP90, comparison with HSP inhibitors: very little effect

## O=CN1CC/C(=C\c2ccc3c(c2)OCO3)C1=O [KNK437]
HSP70
  amount of HSP70, comparison with HSP inhibitors: decrease
HSP90; Jurkat cells, PEP1 5 μM
  amount of HSP90, comparison with HSP inhibitors: decreased
HSP90; MCF7 cells, PEP1 20 μM
  amount of HSP90, comparison with HSP inhibitors: decrease
